Measured values from patent US9957252B2, “Metalloenzyme inhibitor compounds as fungicides” (Dow AgroSciences LLC, priority 2014, dated 2018).
Where two headings read alike, the source gives them in different places.

Legend:
Type in all cases: in vivo, Mycosphaerella graminicola on wheat plants (variety Yuma)
[1] = Leaf blotch of wheat fungicidal activity, Type B assay (10% EC formulation in 0.1% Trycol 5941, track sprayer 200 L/ha), field isolate; conditions: Zymoseptoria tritici, 72 h, field isolate (Wellsbourne, England 2012), wheat seedlings (Yuma)
Protocol: (§1) Evaluation of Fungicidal Activity: Leaf Blotch of Wheat (Mycosphaerella graminicola; Anamorph: Septoria tritici; Bayer code SEPTTR):
(§2) For Type A assays, technical grades of the experimental fungicides in Table 4 below were dissolved in acetone, and then mixed with nine volumes of water containing 110 ppm Triton X-100. The fungicide solutions were applied onto wheat seedlings using an automated booth sprayer. For Type B assays, emulsifiable concentrate (EC) formulations of technical grades of experimental fungicides in Table 4 below were prepared at 10% (w/v), and then mixed with 150 volumes of 0.1% Trycol 5941. The fungicide solutions were applied onto wheat seedlings using an automated track sprayer at 200 L/ha. All sprayed plants were allowed to air dry prior to further handling.
(§3) Wheat plants (variety Yuma) were grown from seed in a greenhouse in 50% mineral soil/50% soil-less Metro mix until the first leaf was fully emerged, with 7-10 seedlings per pot. Prior to or after application of experimental fungicides, plants were inoculated either with spores of a standard laboratory SEPTTR isolate (SI SEPTTR) or with spores from a SEPTTR field isolate collected from Wellsbourne, England in 2012 (FI SEPTTR). After inoculation, the plants were kept for 3 days at 20° C. in 100% relative humidity (one day in a dark dew chamber followed by two days in a lighted dew chamber). Plants were then transferred to a 20° C. greenhouse for disease development. When disease symptoms were fully expressed on untreated plants, infection levels on treated plants were assessed on a scale of 0 to 100 percent disease severity. Percent disease control was calculated using the ratio of disease severity on treated plants relative to untreated plants.

[2] = system: standard laboratory SEPTTR isolate (SI SEPTTR); Mycosphaerella graminicola; Anamorph: Septoria tritici; test: Leaf blotch of wheat fungicidal activity, Type B assay (10% EC formulation in 0.1% Trycol 5941, track sprayer 200 L/ha), standard laboratory isolate; conditions: Zymoseptoria tritici, 72 h, wheat seedlings (Yuma)
Protocol: as §1, §2, §3

[3] = system: standard laboratory SEPTTR isolate (SI SEPTTR); Mycosphaerella graminicola; Anamorph: Septoria tritici; test: Leaf blotch of wheat fungicidal activity, Type A assay (technical grade in acetone/water with Triton X-100, booth sprayer), standard laboratory isolate; conditions: Zymoseptoria tritici, 24 h, 1 Day Protectant, wheat seedlings (Yuma), read-out: Disease control, SI SEPTTR Type A Assay (50 ppm) 1DP
Protocol: as §1, §2, §3

[4] = 3 Day Curative, read-out: Disease control, FI SEPTTR Type B Assay (100 g/ha) 3DC
[5] = 3 Day Protectant, read-out: Disease control, FI SEPTTR Type B Assay (100 g/ha) 3DP
[6] = 3 Day Curative, read-out: Disease control, SI SEPTTR Type B Assay (100 g/ha) 3DC
[7] = 3 Day Protectant, read-out: Disease control, SI SEPTTR Type B Assay (100 g/ha) 3DP

SMILES | pest or weed control at 100 g/ha [1, 4] [%] | pest or weed control at 100 g/ha [1, 5] [%] | pest or weed control at 100 g/ha [2, 6] [%] | pest or weed control at 100 g/ha [2, 7] [%] | pest or weed control at 50 ppm [3] [%]
CC(C)(C)C(O)(c1ccc(-c2ccc(OC(F)(F)F)cc2)cc1)c1cncnc1 (stereo not drawn) [Compound 1, 2,2-dimethyl-1-(pyrimidin-5-yl)-1-(4′-(trifluoromethoxy)-[1,1′-biphenyl]-4-yl)propan-1-ol] | 80 to 100 | 80 to 100 | 80 to 100 | 80 to 100 | 80 to 100
CC(C)(C)C(O)(c1ccc(-c2ccc(OC(F)F)cc2)cc1)c1cncnc1 (stereo not drawn) [Compound 2] | 80 to 100 | 80 to 100 | 80 to 100 | 80 to 100 | 80 to 100
CC(C)(C)C(O)(c1ccc(-c2ccc(C#N)cc2)cc1)c1cncnc1 (stereo not drawn) [Compound 3] | 80 to 100 | 60 to 79 | 60 to 79 | 60 to 79 | 80 to 100
CC(C)(C)C(O)(c1cncnc1)c1ccc(-c2ccc(OC(F)(F)F)cc2)cc1Cl (stereo not drawn) [Compound 8] | 80 to 100 | 80 to 100 | 80 to 100 | 80 to 100 | 80 to 100
CC(C)(C)C(O)(c1cncnc1)c1ccc(-c2ccc(C#N)cc2)cc1Cl (stereo not drawn) [Compound 9] | 80 to 100 | 80 to 100 | 80 to 100 | 60 to 79 | 80 to 100
CC(C)(C)C(O)(c1cncnc1)c1ccc(-c2ccc(OC(F)F)cc2)cc1Cl (stereo not drawn) [Compound 10] | 80 to 100 | 60 to 79 | 80 to 100 | 80 to 100 | 80 to 100
CC(C)(C)C(O)(c1ccc(-c2cccc(OC(F)(F)F)c2)cc1)c1cncnc1 (stereo not drawn) [Compound 11] | 60 to 79 | 60 to 79 | 60 to 79 | 80 to 100 | 80 to 100
CC(C)(C)C(O)(c1ccc(-c2ccc(OCC(F)(F)F)cc2)cc1)c1cncnc1 (stereo not drawn) [Compound 14] | 80 to 100 | 60 to 79 | 80 to 100 | 80 to 100 | 80 to 100
CC(C)(C)C(O)(c1cncnc1)c1ccc(-c2ccc(OC(F)(F)F)cc2)cc1F (stereo not drawn) [Compound 15] | 60 to 79 | 80 to 100 | 80 to 100 | 80 to 100 | –
CC(C)(C)C(O)(c1cncnc1)c1ccc(-c2ccc(OC(F)F)cc2)cc1F (stereo not drawn) [Compound 16] | 80 to 100 | 80 to 100 | 80 to 100 | 80 to 100 | –
CC(C)(C)C(O)(c1cncnc1)c1ccc(-c2ccc(C#N)cc2)cc1F (stereo not drawn) [Compound 17] | 80 to 100 | 80 to 100 | 80 to 100 | 80 to 100 | –
CC(C)(C)C(O)(c1ccc(-c2ccc(SC(F)(F)F)cc2)cc1)c1cncnc1 (stereo not drawn) [Compound 19] | 80 to 100 | 80 to 100 | 80 to 100 | 60 to 79 | –
CC(C)(C)C(O)(c1cncnc1)c1ccc(-c2ccc(Cl)cc2)cc1Cl (stereo not drawn) [Compound 22] | 80 to 100 | 80 to 100 | 80 to 100 | 80 to 100 | –
CC(C)(C)C(O)(c1cncnc1)c1ccc(-c2ccc(C(F)(F)F)nc2)cc1Cl (stereo not drawn) [Compound 23] | 80 to 100 | 80 to 100 | 80 to 100 | 80 to 100 | –
CC(C)(C)C(O)(c1cncnc1)c1ccc(-c2ccc(C(F)(F)F)nc2)cc1F (stereo not drawn) [Compound 24] | 80 to 100 | 80 to 100 | 80 to 100 | 80 to 100 | –
CC(C)(C)C(O)(c1cncnc1)c1ccc(-c2ccc(OCC(F)(F)F)cc2)cc1Cl (stereo not drawn) [Compound 25] | 80 to 100 | 80 to 100 | 80 to 100 | 60 to 79 | 80 to 100
Cc1cc(-c2ccc(OC(F)(F)F)cc2)ccc1C(O)(c1cncnc1)C(C)(C)C (stereo not drawn) [Compound 34] | – | – | – | – | 80 to 100
Cc1cc(-c2ccc(SC(F)(F)F)cc2)ccc1C(O)(c1cncnc1)C(C)(C)C (stereo not drawn) [Compound 35] | – | – | – | – | 80 to 100
Cc1cc(-c2ccc(OC(F)F)cc2)ccc1C(O)(c1cncnc1)C(C)(C)C (stereo not drawn) [Compound 36] | – | – | – | – | 80 to 100
Cc1cc(-c2ccc(C#N)cc2)ccc1C(O)(c1cncnc1)C(C)(C)C (stereo not drawn) [Compound 37] | – | – | – | – | 80 to 100
Cc1cc(-c2ccc(C3(C#N)CC3)cc2)ccc1C(O)(c1cncnc1)C(C)(C)C (stereo not drawn) [Compound 38] | – | – | – | – | 80 to 100
Cc1cc(-c2ccc(C(C)(C)C)cc2)ccc1C(O)(c1cncnc1)C(C)(C)C (stereo not drawn) [Compound 39] | – | – | – | – | 80 to 100
Cc1cc(OC(F)(F)F)ccc1-c1ccc(C(O)(c2cncnc2)C(C)(C)C)c(C)c1 (stereo not drawn) [Compound 40] | – | – | – | – | 80 to 100

SMILES | pest or weed control at 100 g/ha [1, 4] [%] | pest or weed control at 100 g/ha [1, 5] [%] | pest or weed control at 100 g/ha [2, 6] [%] | pest or weed control at 100 g/ha [2, 7] [%] | pest or weed control at 50 ppm [3] [%]
Cc1cc(-c2ccc(OC(F)(F)F)cc2F)ccc1C(O)(c1cncnc1)C(C)(C)C (stereo not drawn) [Compound 41] | – | – | – | – | 80 to 100
Cc1cc(-c2ccc(C(C)(C)C#N)cc2)ccc1C(O)(c1cncnc1)C(C)(C)C (stereo not drawn) [Compound 42] | – | – | – | – | 80 to 100
Cc1cc(-c2ccc(CC#N)cc2)ccc1C(O)(c1cncnc1)C(C)(C)C (stereo not drawn) [Compound 43] | – | – | – | – | 40 to 59
COc1cc(-c2ccc(OC(F)(F)F)cc2)ccc1C(O)(c1cncnc1)C(C)(C)C (stereo not drawn) [Compound 44] | – | – | – | – | 80 to 100
COc1cc(-c2ccc(OC(F)F)cc2)ccc1C(O)(c1cncnc1)C(C)(C)C (stereo not drawn) [Compound 45] | – | – | – | – | 80 to 100
COc1cc(-c2ccc(SC(F)(F)F)cc2)ccc1C(O)(c1cncnc1)C(C)(C)C (stereo not drawn) [Compound 46] | – | – | – | – | 80 to 100
COc1cc(-c2ccc(C#N)cc2)ccc1C(O)(c1cncnc1)C(C)(C)C (stereo not drawn) [Compound 47] | – | – | – | – | 80 to 100
COc1cc(-c2ccc(CC#N)cc2)ccc1C(O)(c1cncnc1)C(C)(C)C (stereo not drawn) [Compound 48] | – | – | – | – | 80 to 100
COc1cc(-c2ccc(C3(C#N)CC3)cc2)ccc1C(O)(c1cncnc1)C(C)(C)C (stereo not drawn) [Compound 49] | – | – | – | – | 80 to 100
COc1cc(-c2ccc(C(C)(C)C)cc2)ccc1C(O)(c1cncnc1)C(C)(C)C (stereo not drawn) [Compound 51] | – | – | – | – | 80 to 100
COc1cc(-c2ccc(OC(F)(F)F)cc2C)ccc1C(O)(c1cncnc1)C(C)(C)C (stereo not drawn) [Compound 52] | – | – | – | – | 60 to 79
COc1cc(-c2ccc(OC(F)(F)F)cc2F)ccc1C(O)(c1cncnc1)C(C)(C)C (stereo not drawn) [Compound 53] | – | – | – | – | 80 to 100
CC(C)(C)C(O)(c1ccc(-c2ccc(OC(F)(F)F)cc2)cc1)c1cccnc1 (stereo not drawn) [Compound 54] | – | – | – | – | 80 to 100
CC(C)(C)C(O)(c1ccc(-c2ccc(SC(F)(F)F)cc2)cc1)c1cccnc1 (stereo not drawn) [Compound 55] | – | – | – | – | 80 to 100
CC(C)(C)C(O)(c1ccc(-c2ccc(OC(F)F)cc2)cc1)c1cccnc1 (stereo not drawn) [Compound 56] | – | – | – | – | 80 to 100
CC(C)(C)C(O)(c1ccc(-c2ccc(OCC(F)(F)F)cc2)cc1)c1cccnc1 (stereo not drawn) [Compound 57] | – | – | – | – | 80 to 100
CC(C)(C)C(O)(c1ccc(-c2ccc(C#N)cc2)cc1)c1cccnc1 (stereo not drawn) [Compound 58] | – | – | – | – | 80 to 100
CC(C)(C)C(O)(c1ccc(-c2ccc(CC#N)cc2)cc1)c1cccnc1 (stereo not drawn) [Compound 59] | – | – | – | – | 80 to 100
CC(C)(C)C(O)(c1ccc(-c2ccc(C3(C#N)CC3)cc2)cc1)c1cccnc1 (stereo not drawn) [Compound 60] | – | – | – | – | 80 to 100
CC(C)(C#N)c1ccc(-c2ccc(C(O)(c3cccnc3)C(C)(C)C)cc2)cc1 (stereo not drawn) [Compound 61] | – | – | – | – | 80 to 100
CC(C)(C)c1ccc(-c2ccc(C(O)(c3cccnc3)C(C)(C)C)cc2)cc1 (stereo not drawn) [Compound 62] | – | – | – | – | 80 to 100
Cc1cc(OC(F)(F)F)ccc1-c1ccc(C(O)(c2cccnc2)C(C)(C)C)cc1 (stereo not drawn) [Compound 63] | – | – | – | – | 80 to 100
